In general, IC50 refers to the concentration needed to halve the response being measured.

Where a name gives a salt, the structure may show the parent alone.

One experiment has as its target T1, Kinase A and SpoOF (Bacillus subtilis, UniProt P16497).
T1 sequence (P16497 1-606): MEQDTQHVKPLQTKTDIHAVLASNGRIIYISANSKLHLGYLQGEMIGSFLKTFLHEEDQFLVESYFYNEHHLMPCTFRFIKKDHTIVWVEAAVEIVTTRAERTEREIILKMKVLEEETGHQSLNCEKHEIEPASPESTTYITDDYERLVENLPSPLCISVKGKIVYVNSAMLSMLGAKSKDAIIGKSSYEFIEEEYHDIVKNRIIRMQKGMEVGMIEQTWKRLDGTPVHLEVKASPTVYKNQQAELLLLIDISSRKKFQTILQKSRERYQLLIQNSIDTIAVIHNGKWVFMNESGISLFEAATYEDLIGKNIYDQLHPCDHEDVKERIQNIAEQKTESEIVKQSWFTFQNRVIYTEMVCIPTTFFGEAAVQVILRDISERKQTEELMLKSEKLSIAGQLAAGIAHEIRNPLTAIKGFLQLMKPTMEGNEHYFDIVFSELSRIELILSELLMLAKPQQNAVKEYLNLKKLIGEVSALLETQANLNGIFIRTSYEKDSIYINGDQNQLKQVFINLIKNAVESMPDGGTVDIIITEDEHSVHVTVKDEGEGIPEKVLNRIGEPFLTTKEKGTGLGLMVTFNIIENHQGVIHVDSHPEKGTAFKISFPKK
Nature of the experiment: Autophosphorylation of Kinase A and transphosphorylation of SpoOF assay (HPK in vitro assay). The experiment is classed as biochemical. As to conditions: inhibition of KinA autophosphorylation / SpoOF transphosphorylation, [32P]ATP, gel and phosphoimager. The method, then:
1. Autophosphorylation of Kinase A and Transphosphorylation of SpoOF Assay
To study the effect of the compounds of the present invention on the signal transduction process in bacteria, the inhibiting effect of the compounds on the sporulation operon proteins Kinase A and SpoOF was examined. Specifically, the inhibition of autophosphorylation of Kinase A and the transphosphorylation of SpoOF was determined in the following assays. The SpoOF response regulator is the primary substrate for phosphorylation by the protein kinase, Kin A, involved in the sporulation process in bacteria. See D. Burbulys, K. A. Trach, J. A. Hoch, Cell, 64, 545-552 (1991).
The following stock reagents were either prepared and used promptly or stored at the indicated temperature:
8× Salts: 2M KCl (5 mL), 1M MgCl2 (800 mL), 1M CaCl2 (100 mL), 10 mg/mL phenylmethylsulfonyl fluoride (200 mL), 1M dithioreitol (50 mL), 0.25M Na2 EDTA (32 mL) and H2 O 3.82 mL (-20°C.)
5× Loading Dye: 0.5M TRIS-HCl-pH 6.8 (7.5 mL), 10% SDS (2 mL) 0.1% bromophenol blue (0.5 mL), 100% glycerol (3 mL) and 12.5M 2-mercaptoethanol (0.3 mL)
1-1.3 mg/mL KinA:15 mM TRIS-HCl, pH 8.0, 6 mM KCl; 4 mM 2-mercaptoethanol; 40% glycerol (-20 C.)
1 mg/mL Spo0F: 17.5 mM TRIS-HCl, pH 8.0; 0.7 mM KCl; 0.7 mM MgCl2; 0.7 mM CaCl2; 5 mM 2-mercaptoethanol; 30% Glycerol (-20°C.)
5% Stacking Gel: 40% 29:1 acrylamide:bis acrylamide (1.25 mL), 0.5M TRIS-HCl, pH 6.8 (2.5 mL), 10% SDS (0.1 mL), D-H2 O (6.15 mL) 10% ammonium persulfate (100 mL) and TEMED (25 mL)
SDS Running Buffer: TRIS-BASE (3.02 g), glycine (14.4 g) SDS (1 g), D-H2 O (to 1 L)
The reaction mixture was prepared from 8× Salts (87 μL), 1M TRIS, pH 8 (118 EL), 50% glycerol (63 μL), Spo0F (14.1 μL) and KinA (7.0 μL). Microcentrifuge tubes were charged with the reaction mixture (18.5 μL) and a 1.0 mM solution of the test compound in 5% DMSO (18.5 μL), and incubated for 15 min on ice. 100 mM ATP solution (3.0 μI, containing 625 μCi [^32 P]ATP) was added, and the mixture left for 10 minutes at room temperature. The reaction was quenched with 5× loading dye (10 μL per tube) and the samples were loaded on a prepared 5% Stacking Gel, or stored on dry ice until ready for use. The prepared wells were filled with SDS Running Buffer, samples were loaded into the wells, and 80 volts were applied to the gel until the dye front reached the bottom of the stacking gel. The voltage was then increased to 250 volts until electrophoresis was complete. Radioactive bands in the gel corresponding to phosphorylated KinA and SpoOF were imaged and quantitated with a phosphoimager.
If either enzyme was inhibited (as evidenced by the absence of labelled protein in the developed gel), an IC50 was calculated by running the assay with a range of inhibitor concentrations from 1 to 500 μM. After electrophoresis of the reaction mixtures, percent inhibition was determined by measuring the concentration of radioactive phosphorus with a phosphoimager and calculating the values using a software program (BioRad Molecular Analyst).
Compound `N=C(N)NCCc1ccc(OCCC(c2ccccc2)c2ccccc2)cc1` [Compound 3, 2-[4-(3,3-DIPHENYLPROPOXY)PHENYL]ETHYLGUANIDINE] showed an IC50 of 21.5 µM.
Compound `NCCc1ccc(OC(c2ccccc2)c2ccccc2)cc1` [Compound 10, 2-{4-(2-DIPHENYL-2-METHOXY)PHENYL}ETHYLAMINE·HYDROCHLORIDE·HYDRATE] registered an IC50 of 68 µM. Compared with the last compound, the IC50 is about 3.2-fold higher.
Compound `NCc1cccc(OCCC(c2ccccc2)c2ccccc2)c1` [Compound 8, [3-(3,3-DIPHENYLPROPOXY)PHENYL]METHYLAMINE·HYDROCHLORIDE·0.6 HYDRATE] yielded a concentration for half-maximal inhibition (IC50) of 42.9 µM.
Compound `NCCc1ccc(NC/C=C(/c2ccccc2)c2cccnc2)cc1` [Compound 20, Z-2-[4-(3-PHENYL-3-(3-PYRIDYL)PROPENYLAMINO)PHENYL]-ETHYLAMINE·OXALATE·0.2DIETHYL ETHER·0.15 ETHYL ACETATE·0.5 HYDRATE] yielded a half-maximal inhibitory concentration (IC50) greater than 500 µM.
On the same count and under the same terms, as for `NCCc1ccc(O[C@@H]2CC[C@H](c3ccccc3)c3ccccc32)cc1` (relative stereo) [Compound 6, 2-[4-(ClS-4-PHENYL-1,2,3,4-TETRAHYDRO-1-NAPHTHOXY)PHENYL]-ETHYLAMINE OXALATE], the figure is 68.9 µM; as for `Brc1ccc(OCCC(c2ccccc2)c2ccccc2)cc1` [Compound 17, 4-(3,3-DIPHENYLPROPOXY)BROMOBENZENE], 643.5 µM.
In turn, `NCCc1ccc(NC/C=C(\c2ccccc2)c2cccnc2)cc1` [Compound 21, E-2-[4-(3-PHENYL-3-(3-PYRIDYL)-2-PROPENYLAMINO)PHENYL]-ETHYLAMINE·OXALATE·0.33 ETHYL ACETATE·0.5 HYDRATE] returned a concentration for half-maximal inhibition (IC50) greater than 500 µM.
The same measure, in the same setting: as for `O=CN1CCN(c2ccc(OCCC(c3ccccc3)c3ccccc3)cc2)CC1` [Compound 12, 1-FORMYL-4-[4-(3,3-DIPHENYLPROPOXY)PHENYL]PIPERAZINE·0.5 HYDRATE], the figure is 165 µM.
Same read-out and setting: as for `NCCCc1ccc(OCC=C(c2ccccc2)c2ccccc2)cc1` [Compound 11, 3-[4-(3,3-DIPHENYL-2-PROPENOXY)PHENYL]PROPYLAMINE·OXALATE], the figure is 19.5 µM.
The same measure, in the same setting: as for `NCCc1ccc(OCCC(c2ccccc2)c2ccccc2)cc1` [Compound 2, 2-[4-(3,3-DIPHENYLPROPOXY)PHENYL]ETHYLAMINE], the figure is 31.25 µM; as for `C1=C(c2ccc(OCCOC(c3ccccc3)c3ccccc3)cc2)CCNC1` [Compound 25, 4-{4-[2-(DIPHENYLMETHOXY) ETHOXY]PHENYL}-1, 2, 3, 6-TETRAHYDROPYRIDINE·MONOOXALATE 0.5 HYDRATE], 313 µM; as for `N=C(N)NCc1cccc(OCCC(c2ccccc2)c2ccccc2)c1` [Compound 7, [3-(3,3-DIPHENYLPROPOXY)PHENYL]METHYLGUANIDINE BICARBONATE 0.5 HYDRATE], 60 µM.
For the compound `O=C(CC(c1ccccc1)c1ccccc1)Nc1ccc(N2CCNCC2)cc1` [Compound 13, 4-[4-(3,3-DIPHENYLPROPANOYLAMINO) PHENYL]PIPERAZINE·0.5 HYDRATE], the IC50 is 379.4 µM.
The same measure, in the same setting: for `O=C(O)C(=O)O.c1ccc(C(CCOc2ccc(N3CCNCC3)cc2)c2ccccc2)cc1` [Compound 14, 4-[4-(3,3-DIPHENYLPROPOXY)PHENYL]PIPERAZINE OXALATE] the value was 130.4 µM; for `N=C(N)NCCc1ccc(OCCC2c3ccccc3-c3ccccc32)cc1` [Compound 4, {2-[4-[2-(9-FLUORENYL)ETHOXY]PHENYL]ETHYL}GUANIDINE], 19.8 µM.
Still for that read-out and setting: as for `C1=C(c2ccc(OCCC(c3ccccc3)c3ccccc3)cc2)CCNC1` [Compound 15, 4-[4-(3,3-DIPHENYLPROPYLOXY)PHENYL]-1,2,3,6-TETRAHYDROPYRIDINE·HYDROCHLORIDE 0.6 HYDRATE], the figure is 45.6 µM.
The same measure, in the same setting: for `NCCc1ccc(OCC=C(c2ccccc2)c2ccccc2)cc1` [Compound 9, 2-[4-(3,3-DIPHENYL-2-PROPENOXY)PHENYL]ETHYLAMINE HYDROCHLORIDE·0.5HYDRATE] the value was 41 µM.
Compound `N=C(N)NCCc1ccc(OCCN(Cc2ccccc2)Cc2ccccc2)cc1` [Compound 23, 2-[4-(2-[N,N'-DIBENZYLAMINO]-ETHOXY)PHENYL]ETHYLGUANIDINE] displayed an IC50 of 60 µM.
The same measure, in the same setting: as for `NCCc1ccc(OCCC(c2ccccc2)c2cccnc2)cc1` (stereo not drawn) [Compound 18, 2-[4-(3-PHENYL-3-(3-PYRIDYL)PROPOXY)PHENYL]ETHYLAMINE·OXALATE·0.1 HYDRATE], the figure is greater than 100 µM; as for `c1ccc(C(OCCOc2ccc(N3CCNCC3)cc2)c2ccccc2)cc1` [Compound 24, 4-[4-{2-(DIPHENYLMETHOXY)ETHOXY}PHENYL]PIPERAZINE·CARBONATE 2.0 HYDRATE], 769 µM.

The test system of a further experiment is gram positive bacteria / Gram negative bacteria (Enterococcus faecalis, Staphylococcus aureus incl. methicillin resistant, Staphylococcus epidermidis …). Put plainly: MIC antimicrobial assay (NCCLS microdilution broth method). As to conditions: MIC value range over the selected gram positive and gram negative test organisms; 35° C., 16-20 hours. It is filed as cell-based. On the procedure:
2. MIC Antimicrobial Assay
The in vitro antimicrobial activity of the compounds was determined by the microdilution broth method following the test method from the National Committee for Laboratory Standards (NCCLS). This method is described in the NCCLS Document M7-A2, Vol.10, No. 8 "Methods for Dilution Antimicrobial Susceptibility Test for Bacteria that Grow Aerobically-Second Edition."
In this method two-fold serial dilutions of drug in cation supplemented Mueller-Hinton broth are added to wells in microdilution trays. The test organisms are prepared by adjusting the turbidity of actively growing broth cultures so that the final concentration of test organism after it is added to the wells is approximately 5×10^4 CFUs/well).
Following inoculation of the microdilution trays, the trays are incubated at 35° C. for 16-20 hours and then read. […] The amount of growth in the wells containing the test compound is compared with the amount of growth in the growth-control wells (no test compound) used in each tray. The following test organisms were utilized in the assay:
Enterococcus faecalis ATCC 29212
Enterococcus faecalis oc 3041
Enterococcus faecalis oc 2993
Methicillin resistant Staphylococcus aureus oc 2089
Methicillin resistant Staphylococcus aureus oc 667
Staphylococcus aureus ATCC 29213
Staphylococcus aureus ATCC 6538
Staphylococcus epidermidis oc 2603
Escherichia coli oc 2530 ss […]
Background: In broth dilution the organism is exposed to a series of concentrations in liquid medium.
`N=C(N)NCc1cccc(OCCC(c2ccccc2)c2ccccc2)c1` [Compound 7, [3-(3,3-DIPHENYLPROPOXY)PHENYL]METHYLGUANIDINE BICARBONATE 0.5 HYDRATE]: the “MIC(G+/G-)” value was 2-32.

The record behind these values is US5773469A, “Diaryl antimicrobial agents” (Ortho Pharmaceutical Corporation, priority 1996, dated 1998).
